Test results taken from patent US10660939B2, “Therapies for obesity, diabetes and related indications” (Palatin Technologies, Inc., priority 2015, dated 2020).
Each block holds one molecule with its values, some of them ahead of it.

How the values were obtained:
hMC4r [1] = biological target: T1, hMC4r (Homo sapiens, UniProt P32245); test: cAMP accumulation functional assay in HEK-293 cells expressing hMC4r; format: cell-based; settings: agonist = 70% or greater intrinsic activity
T1 construct: expressed in transfected cells; host or cells: HEK-293
T1 sequence (P32245 whole entry): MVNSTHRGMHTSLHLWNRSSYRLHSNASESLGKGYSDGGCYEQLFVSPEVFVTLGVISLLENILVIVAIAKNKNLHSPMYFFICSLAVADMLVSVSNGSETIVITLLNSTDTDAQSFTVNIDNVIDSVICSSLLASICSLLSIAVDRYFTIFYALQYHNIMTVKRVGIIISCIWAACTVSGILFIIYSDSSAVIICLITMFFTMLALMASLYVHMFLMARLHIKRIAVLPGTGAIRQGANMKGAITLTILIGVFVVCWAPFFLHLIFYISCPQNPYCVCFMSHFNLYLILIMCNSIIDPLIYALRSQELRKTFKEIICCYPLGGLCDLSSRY
Method: Accumulation of intracellular cAMP was examined as a measure of the ability of the MC4r peptides to elicit a functional response in HEK-293 cells that express MC4r. Confluent HEK-293 cells that express recombinant hMC4r were detached from culture plates by incubation in enzyme-free cell dissociation buffer. Dispersed cells were suspended in Earle's Balanced Salt Solution containing 10 mM HEPES (pH 7.5), 1 mM MgCl2, 1 mM glutamine, 0.5% albumin and 0.3 mM 3-isobutyl-1-methyl-xanthine (IBMX), a phosphodiesterase inhibitor. […] Cells were exposed for 15 minutes at 37° C. to peptides of the present invention dissolved in DMSO (final DMSO concentration of 1%) at a concentration range of 0.05-5000 nM in a total assay volume of 200 μL. […] Data analysis was performed by nonlinear regression analysis with Graph-Pad Prism® software. The maximum efficacies of the test peptides of the present invention were compared to that achieved by the reference melanocortin agonist NDP-α-MSH.

hMC4r [2] = biological target: T1, hMC4r; test: competitive inhibition binding assay with Eu-NDP-α-MSH (time-resolved fluorometry)
Method: After incubation for 90 minutes at 37° C., the reaction was stopped by filtration over AcroWell 96-well filter plates (Pall Life Sciences). The filter plates were washed 4 times with 200 μL of ice-cold phosphate-buffered saline. DELFIA Enhancement solution (PerkinElmer Life Sciences) was added to each well. […] Each assay was conducted in duplicate and mean values were utilized. Ki values were determined by curve-fitting with Graph-Pad Prism® software using a one-site fixed-slope competition binding model.

hMC4r [3] = biological target: T1, hMC4r; test: competitive inhibition binding assay with [I125]-NDP-α-MSH, membrane homogenates of HEK-293 cells; settings: averaged values, not marked *: [I125]-NDP-α-MSH; read-out: MC4r Ki
Method: Assays were performed in 96 well GF/B Millipore multiscreen filtration plates (MAFB NOB10) pre-coated with 0.5% bovine serum albumin (Fraction V). […] After incubation for 60 minutes at 37° C., the assay mixture was filtered and the membranes washed three times with ice-cold buffer. Filters were dried and counted in a gamma counter for bound radioactivity. […] Maximal specific binding (100%) was defined as the difference in radioactivity (cpm) bound to cell membranes in the absence and presence of 1 μM NDP-α-MSH. […] Each assay was conducted in triplicate and the actual mean values are described, with results less than 0% reported as 0%. Ki values for test peptides of the present invention were determined using Graph-Pad Prism® curve-fitting software.

[4] = DIO mice, single daily subcutaneous bolus dose of Peptide No. 154 (Example 10); format: in vivo, mouse; settings: single daily subcutaneous dose of 3 mg/kg, on day 5, ±0.6 SEM
Method: 10. […] By contrast, animals receiving a single daily subcutaneous dose of 3 mg/kg continuously lost weight over 5 days, and reached a maximum weight loss on day 5 of 4.2 g±0.6 SEM compared to baseline (study day 0).

[5] = diet induced obese Sprague-Dawley rats, GLP-1 infusion and Peptide No. 154 b.i.d., fasted glucose and insulin (Example 9); format: in vivo, rat; settings: DIO rats, 1.0 mg/kg Peptide No. 154 b.i.d. alone
Method: 9. MC4r 154 was evaluated with GLP-1 to determine effect on body weight and feed intake in diet induced obese Sprague-Dawley rats. Rats were acquired at 17 weeks and pre-conditioned for 5 weeks on high fat diet prior to dosing. No sharp increase in weight was noted, likely due to late onset of the high fat diet. At study day −2, baseline GTT and insulin levels were assessed on 16-hour fasted animals. Animals were then permitted a 2-day recovery period, and on study day 0, animals were randomized into treatment groups by body weight and Alzet continuous infusion pumps containing either vehicle or GLP-1 (for dosing at either 10 or 100 μg/kg/day) were implanted. Beginning on study day 1, body weight and feed weights were taken in the mornings. Beginning on study day 4, twice daily (b.i.d.) subcutaneous dosing of saline was initiated for all groups other than the treatment naïve group to acclimate the animals to handling and subcutaneous dosing. […] Animals were fasted for the 16 hours prior to the GTT.
Data is shown as the percent change from study day −2 baseline test±SEM.
FIG. 4 compares the fasted insulin levels at study day −2 and study day 12, with insulin measured after 16 hour fast and prior to GTT testing. Data is shown as ng/mL insulin±SEM.

[6] = diet induced obese rats, GLP-1 infusion and Peptide No. 154 twice daily, body weight and feed intake (Example 11); format: in vivo, rat; settings: DIO rats
Method: 11. […] Each treatment group was compared to the vehicle group using t-test, one-way ANOVA or two-way ANOVA followed by Dunnett's multiple comparisons (GraphPad). A p value<0.05 was considered to represent a significant difference.
Individual body weights were measured on study days 1-9. Percent change in body weight is calculating according to this formula: 100*(value-baseline)/baseline, where value is the weight of the animal on study day in question and baseline is the weight of the same animal on study day −1.
On days 1-4, feeds were weighed at 0, and 24 hours after lights off. On days 5-9, feeds were weighed at 0, 2, 6 and 24 hours after lights off.

[7] = diet induced obese mice, Peptide No. 154 with GLP-1, Alzet pumps (Example 8); format: in vivo, mouse; settings: DIO mice, continuous infusion of 30 mg/kg/day; lost weight only for the first two days; ±0.34 SEM
Method: Groups 1, 2 and 4 were provided ad libitum with a 45% high fat rodent diet. Animals in Group 3 were pair-fed to Group 2. The amount of food consumed in Group 2 was the amount of food given to Group 3 in the next 24 hour period. For group 3 (pair-fed group), the pump was implanted 1 day later than other groups to account for pair-feeding. On day −2 and day 6, animals from Groups 1, 2, and 4 were fasted overnight and baseline and terminal glucose tolerance tests (GTT) was conducted. GTT and insulin levels in Group 3 were conducted one day later. Body weight and food intake were measured each day. To conduct the GTT, on study day −2 (−1 for Group 3) (baseline test) and day 6 (7 for Group 3) (termination test), 1 g/kg glucose was orally administered. Glucose levels were taken prior to glucose administration and 15, 30, 60, 90 and 120 minutes post-glucose administration.
Data is expressed as percent change at the termination test, ±standard deviation (SD) from the baseline test. This was calculated as: (AUCday 7−AUCday −2)[…] In FIG. 1, diet induced obese mice were administered MC4r 154 (30 mg/kg/day) either with or without 0.1 mg/kg/day GLP-1, with one group pair fed to the MC4r 154 group but administered only GLP-1 (“Pair-Fed to MC4r 154+GLP-1”).
Data is shown as the average of body weight change in grams±standard error of the mean (SEM) from study day 0.

Compound: CC(=O)N[C@@H](CCCNC(=N)N)C(=O)N[C@H]1CC(=O)NCCCC[C@@H](C(N)=O)NC(=O)[C@H](Cc2c[nH]c3ccccc23)NC(=O)[C@H](CCCNC(=N)N)NC(=O)[C@@H](Cc2ccccc2)NC(=O)[C@H](CCC(N)=O)NC1=O [Peptide No. 32, Ac-Arg-cyclo(Asp-Gln-D-Phe-Arg-Trp-Lys)-NH2]
functional status at MC4r (agonist / partial agonist) (hMC4r [1]): agonist

Compound: CC(=O)N[C@@H](CCCNC(=N)N)C(=O)N[C@H]1CCCC(=O)NCC[C@@H](C(N)=O)NC(=O)[C@H](Cc2c[nH]c3ccccc23)NC(=O)[C@H](CCCNC(=N)N)NC(=O)[C@@H](Cc2ccccc2)NC(=O)[C@H](Cc2c[nH]cn2)NC1=O [compound 126, Ac-Arg-cyclo(hGlu-His-D-Phe-Arg-Trp-Dab)-NH2]
functional status at MC4r (agonist / partial agonist) (hMC4r [1]): agonist

Compound: CC(=O)N[C@@H](CCCNC(=N)N)C(=O)N[C@H]1CC(=O)NCCCC[C@@H](C(N)=O)NC(=O)[C@H](Cc2c[nH]c3ccccc23)NC(=O)[C@H](CCCNC(=N)N)NC(=O)[C@@H](Cc2ccccc2)NC(=O)[C@H](C(C)C)NC1=O [Peptide No. 16, Ac-Arg-cyclo(Asp-Val-D-Phe-Arg-Trp-Lys)-NH2]
functional status at MC4r (agonist / partial agonist) (hMC4r [1]): partial agonist

Compound: CC(=O)N[C@@H](CCCNC(=N)N)C(=O)N[C@H]1CC(=O)NCCCC[C@@H](C(=O)O)NC(=O)[C@H](Cc2c[nH]c3ccccc23)NC(=O)[C@H](CCCNC(=N)N)NC(=O)[C@@H](Cc2ccccc2)NC(=O)[C@H](CCN)NC1=O [compound 164, Ac-Arg-cyclo(Asp-Dab-D-Phe-Arg-Trp-Lys)-OH]
Ki (hMC4r [3]): 57 nM

Compound: CC(=O)N[C@@H](CCCNC(=N)N)C(=O)N[C@H]1CCCNC(=O)CC[C@@H](C(N)=O)NC(=O)[C@H](Cc2c[nH]c3ccccc23)NC(=O)[C@H](CCCNC(=N)N)NC(=O)[C@@H](Cc2ccccc2)NC(=O)[C@H](CC(N)=O)NC1=O [Peptide No. 154, Ac-Arg-cyclo(Orn-Asn-D-Phe-Arg-Trp-Glu)-NH2]
maximum weight loss compared to baseline (study day 0) [4]: 4.2 g
decrease in fasted plasma glucose, day -2 to day 12 [5]: most pronounced decrease
appetite on day 9 [6]: recovered on day 9
food intake after start of Peptide No. 154 dosing ([6]; Peptide No. 154 s.c. from day 5): decreased starting on day 5
feed intake at 2 and 6 hours post lights off compared with vehicle ([6]; days 5-9): significant decreased feed intakes
body weight compared with vehicle ([6]; subcutaneous dosing twice daily, days 5-10): decreased animal's body weight significantly
maximum weight loss compared to baseline (study day 0) [7]: 1.76 g

Now from value to molecule:

functional status at MC4r (agonist / partial agonist) (hMC4r [1]): agonist
Compound: CC(=O)N[C@@H](CCCNC(=N)N)C(=O)N[C@H]1CCCC(=O)NCC[C@@H](C(N)=O)NC(=O)[C@H](Cc2c[nH]c3ccccc23)NC(=O)[C@H](CCCNC(=N)N)NC(=O)[C@@H](Cc2ccccc2)NC(=O)[C@H](CCN)NC1=O [compound 127, Ac-Arg-cyclo(hGlu-Dab-D-Phe-Arg-Trp-Dab)-NH2]

functional status at MC4r (agonist / partial agonist) (hMC4r [1]): agonist
Compound: CC(=O)N[C@@H](CCCNC(=N)N)C(=O)N[C@H]1CCNC(=O)CCC[C@@H](C(N)=O)NC(=O)[C@H](Cc2c[nH]c3ccccc23)NC(=O)[C@H](CCCNC(=N)N)NC(=O)[C@@H](Cc2ccccc2)NC(=O)[C@H](Cc2c[nH]cn2)NC1=O [compound 128, Ac-Arg-cyclo(Dab-His-D-Phe-Arg-Trp-hGlu)-NH2]

Ki (hMC4r [2]): 88 nM
Compound: CC(=O)NCC[C@@H]1NC(=O)[C@@H](NC(=O)[C@H](CCCNC(=N)N)NC(C)=O)CC(=O)NCCCC[C@@H](C(N)=O)NC(=O)[C@H](Cc2c[nH]c3ccccc23)NC(=O)[C@H](CCCNC(=N)N)NC(=O)[C@@H](Cc2ccccc2)NC1=O [compound 114, Ac-Arg-cyclo(Asp-Dab(Acetyl)-D-Phe-Arg-Trp-Lys)-NH2]

Ki (hMC4r [3]): 4 nM
Compound: CC(=O)N[C@@H](CCCNC(=N)N)C(=O)N[C@H]1CC(=O)NCCCC[C@@H](C(N)=O)NC(=O)[C@H](Cc2c[nH]c3ccccc23)NC(=O)[C@H](CCCNC(=N)N)NC(=O)[C@@H](Cc2ccccc2)NC(=O)[C@H](CCN)NC1=O [compound 163, Ac-Arg-cyclo(Asp-Dab-D-Phe-Arg-Trp-Lys)-NH2]

functional status at MC4r (agonist / partial agonist) (hMC4r [1]): agonist
Compound: CC(=O)N[C@@H](CCCNC(=N)N)C(=O)N[C@H]1CCNC(=O)CCC[C@@H](C(N)=O)NC(=O)[C@H](Cc2c[nH]c3ccccc23)NC(=O)[C@H](CCCNC(=N)N)NC(=O)[C@@H](Cc2ccccc2)NC(=O)[C@H](CCN)NC1=O [compound 129, Ac-Arg-cyclo(Dab-Dab-D-Phe-Arg-Trp-hGlu)-NH2]

functional status at MC4r (agonist / partial agonist) (hMC4r [1]): agonist
Compound: CC(=O)N[C@@H](CCCNC(=N)N)C(=O)N[C@H]1CC(=O)NCCCC[C@@H](C(N)=O)NC(=O)[C@H](Cc2c[nH]c3ccccc23)NC(=O)[C@H](CCCNC(=N)N)NC(=O)[C@@H](Cc2ccccc2)NC(=O)[C@H](Cc2c[nH]cn2)NC1=O [Peptide No. 1, Ac-Arg-cyclo(Asp-His-D-Phe-Arg-Trp-Lys)-NH2]
